Key:
[1] = test system: barnyardgrass; test: Test A pre-/postemergence herbicide test; type: in vivo, Echinochloa crus-galli
Procedure, shortened: (§1)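 Planted in loam–sand blend; treated the same day preemergence by directed soil spray, while separately grown plants at one- to two-leaf stage got postemergence spray. Compared visually with untreated controls after approximately 10 days; 100 means complete control.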

[2] = test system: kochia; test: Test A pre-/postemergence herbicide test; type: in vivo, Kochia scoparia
Procedure, shortened: as §1

[3] = test system: ragweed; test: Test A pre-/postemergence herbicide test; type: in vivo, Ambrosia elatior
Procedure, shortened: as §1

[4] = test system: ryegrass, Italian; test: Test A pre-/postemergence herbicide test; type: in vivo, Lolium multiflorum
Procedure, shortened: as §1

[5] = test system: giant foxtail; test: Test A pre-/postemergence herbicide test; type: in vivo, Setaria faberii
Procedure, shortened: as §1

[6] = test system: pigweed; test: Test A pre-/postemergence herbicide test; type: in vivo, Amaranthus retroflexus
Procedure, shortened: as §1

[7] = test system: wheat; test: Test A pre-/postemergence herbicide test; type: in vivo, Triticum aestivum; conditions: Postemergence
Procedure, shortened: as §1

[8] = test system: corn; test: Test A pre-/postemergence herbicide test; type: in vivo, Zea mays; conditions: Postemergence
Procedure, shortened: as §1

[9] = test system: blackgrass; test: Test A postemergence herbicide test; type: in vivo, Alopecurus myosuroides
Procedure, shortened: (§2)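 Plants at the one- to two-leaf stage, 2–10 cm tall, grown in loam/sand pots, received postemergence sprays of the test chemicals. After about 10 days in the greenhouse, injury was scored visually against untreated controls on a 0–100 scale (0 none, 100 complete control).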

[10] = test system: galium; test: Test A postemergence herbicide test; type: in vivo, Galium aparine
Procedure, shortened: as §2

[11] = test system: rice; test: Test B flooded paddy test; type: in vivo, Oryza sativa; conditions: 500 g ai/ha, Flood; scale of 0 to 100 where 0 is no effect and 100 is complete control
Procedure, shortened: (§3)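 Plants were grown to the 2-leaf stage, then pots were flooded to 3 cm above the soil and compound was applied directly into the paddy water, with that depth held throughout. After 13 to 15 days in a greenhouse, injury was rated visually against untreated controls on a 0 to 100 scale (100 = complete control).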

[12] = test system: sedge, umbrella; test: Test B flooded paddy test; type: in vivo, Cyperus difformis; conditions: 500 g ai/ha, Flood; scale of 0 to 100 where 0 is no effect and 100 is complete control
Procedure, shortened: as §3

[13] = test system: ducksalad; test: Test B flooded paddy test; type: in vivo, Heteranthera limosa; conditions: 500 g ai/ha, Flood; scale of 0 to 100 where 0 is no effect and 100 is complete control
Procedure, shortened: as §3

[14] = test system: barnyardgrass; test: Test B flooded paddy test; type: in vivo, Echinochloa crus-galli; conditions: 500 g ai/ha, Flood; scale of 0 to 100 where 0 is no effect and 100 is complete control
Procedure, shortened: as §3

[15] = Postemergence, 125 g ai/ha, 0 to 100 scale, 0 is no effect, 100 is complete control
[16] = Postemergence, 500 g ai/ha, 0 to 100 scale (0 no effect, 100 complete control)
[17] = Preemergence, 125 g ai/ha, 0 to 100 scale where 0 is no effect and 100 is complete control
[18] = preemergence, 500 g ai/ha, 0 to 100 scale, 0 is no effect and 100 is complete control
[19] = Postemergence, 125 g ai/ha, visual rating on 0 to 100 scale (0 no effect, 100 complete control), approx. 10 days
[20] = 125 g ai/ha, visual rating on 0 to 100 scale (0 no effect, 100 complete control), approx. 10 days
[21] = 500 g ai/ha, 0 to 100 scale (0 no effect, 100 complete control)
[22] = 125 g ai/ha, 0 to 100 scale, 0 is no effect, 100 is complete control
[23] = 125 g ai/ha, visual rating, 0 to 100 scale, 0 no effect, 100 complete control, approximately 10 days, preemergence

SMILES	Plant response rating, Barnyardgrass [1, 15]	Plant response rating, Barnyardgrass [1, 16]	Plant response rating, Barnyardgrass [1, 17]	Plant response rating, Barnyardgrass [1, 18]	Plant response rating, Kochia [2, 15]	Plant response rating, Kochia [2, 16]	Plant response rating, Kochia [2, 17]	Plant response rating, Kochia [2, 18]	Plant response rating, Ragweed [3, 18]	Plant response rating, Ryegrass, Italian [4, 18]	Plant response rating, Foxtail, Giant [5, 15]	Plant response rating, Foxtail, Giant [5, 18]	Plant response rating, Pigweed [6, 18]	Plant response rating, Corn [8, 22]	Plant response rating, Blackgrass [9, 22]	Plant response rating, Galium [10, 22]	Plant response rating, Rice [11]	Plant response rating, Sedge, Umbrella [12]	Plant response rating, Ducksalad [13]	Plant response rating, Barnyardgrass [14]	also measured
O=C1NCC(c2ccc(Cl)c(Cl)c2)C1C(=O)Nc1ccc(F)cc1F (racemic) [Compound 272]	50	80	70	90	20	60	0	20	0	0	60	90	30	0	0	30	0	0	100	20	Plant response rating, Ragweed [3, 19]: 40; Plant response rating, Ragweed [3, 16]: 0; Plant response rating, Ragweed [3, 17]: 0; Plant response rating, Ryegrass, Italian [4, 19]: 0; Plant response rating, Ryegrass, Italian [4, 16]: 0; Plant response rating, Ryegrass, Italian [4, 17]: 0; Plant response rating, Foxtail, Giant [5, 16]: 80; Plant response rating, Foxtail, Giant [5, 17]: 90; Plant response rating, Pigweed [6, 19]: 0; Plant response rating, Pigweed [6, 16]: 20; Plant response rating, Pigweed [6, 17]: 0; Plant response rating, Wheat [7, 20]: 0; Plant response rating, Wheat [7, 21]: 0; Plant response rating, Corn [8, 21]: 10; Plant response rating, Blackgrass [9, 21]: 30; Plant response rating, Galium [10, 21]: 50
O=C1NCC(c2ccc(Cl)c(Cl)c2)C1C(=O)Nc1ccccc1Cl (racemic) [Compound 273]	10	30	50	80	0	0	0	70	0	0	20	90	0	0	0	0	0	0	70	0	Plant response rating, Ragweed [3, 19]: 0; Plant response rating, Ragweed [3, 16]: 0; Plant response rating, Ragweed [3, 17]: 0; Plant response rating, Ryegrass, Italian [4, 19]: 0; Plant response rating, Ryegrass, Italian [4, 16]: 0; Plant response rating, Ryegrass, Italian [4, 17]: 0; Plant response rating, Foxtail, Giant [5, 16]: 70; Plant response rating, Foxtail, Giant [5, 17]: 90; Plant response rating, Pigweed [6, 19]: 0; Plant response rating, Pigweed [6, 16]: 0; Plant response rating, Pigweed [6, 17]: 0; Plant response rating, Wheat [7, 20]: 0; Plant response rating, Wheat [7, 21]: 0; Plant response rating, Corn [8, 21]: 0; Plant response rating, Blackgrass [9, 21]: 0; Plant response rating, Galium [10, 21]: 50
CCCN1CC(c2ccc(C(F)(F)F)cc2)C(C(=O)Nc2ccccc2F)C1=O (stereo not drawn) [Compound 181]	0	–	–	0	10	–	–	80	0	0	0	70	0	0	40	0	0	0	0	0	Plant response rating, Barnyardgrass [1, 23]: 0; Barnyardgrass plant response rating (0 to 100 scale, 0 is no effect, 100 is complete control) ([1]; Postemergence, 500 g ai/ha): 0; Plant response rating, Kochia [2, 23]: 50; Kochia plant response rating (0 to 100 scale, 0 is no effect, 100 is complete control) ([2]; Postemergence, 500 g ai/ha): 70; Plant response rating, Ragweed [3, 23]: 0; Plant response rating, Ragweed [3, 15]: 0; Ragweed plant response rating (0 to 100 scale, 0 is no effect, 100 is complete control) ([3]; Postemergence, 500 g ai/ha): 0; Plant response rating, Ryegrass, Italian [4, 23]: 0; Plant response rating, Ryegrass, Italian [4, 15]: 0; Ryegrass, Italian plant response rating (0 to 100 scale, 0 is no effect, 100 is complete control) ([4]; Postemergence, 500 g ai/ha): 0; Plant response rating, Foxtail, Giant [5, 23]: 10; Foxtail, Giant plant response rating (0 to 100 scale, 0 is no effect, 100 is complete control) ([5]; Postemergence, 500 g ai/ha): 0; Plant response rating, Pigweed [6, 23]: 0; Plant response rating, Pigweed [6, 15]: 0; Pigweed plant response rating (0 to 100 scale, 0 is no effect, 100 is complete control) ([6]; Postemergence, 500 g ai/ha): 50; Plant response rating, Wheat [7, 22]: 0; Wheat plant response rating (0 to 100 scale, 0 is no effect, 100 is complete control) ([7]; 500 g ai/ha): 0; Corn plant response rating (0 to 100 scale, 0 is no effect, 100 is complete control) ([8]; 500 g ai/ha): 0; Blackgrass plant response rating (0 to 100 scale, 0 is no effect, 100 is complete control) ([9]; 500 g ai/ha): 50; Galium plant response rating (0 to 100 scale, 0 is no effect, 100 is complete control) ([10]; 500 g ai/ha): 0
